Experimental data from US20040009899A1, “Treating dominant disorders” (priority 2002, published 2004).

What was measured:
GAPDH = assay: Western immunoblot of GAPDH (non-targeted gene) in PNA-treated R6/1 mice; format: in vivo, mouse; conditions: any animal tested
Protocol: Following the treatment period, mice were anesthetized with ether and sacrificed by cervical dislocation. Whole brains and livers were removed and placed in 0.9% saline. Striatum tissue was dissected from whole brains, and liver tissue was finely minced. The tissues were placed in separate 2 mL microfuge tubes on dry ice and then suspended in 20 volumes of RIPA buffer (50 mM Tris pH 8, 150 mM NaCl, 1 mM EDTA, 1 mM EGTA, 0.5% sodium deoxycholate, 0.1% SDS, 1% TritonX-100, 2 μg/mL leupeptin, 2 μg/mL aprotinin, 1 μg/mL pepstatin, 1 mM phenylmethylsulfonylfluoride) per gram of tissue. Suspended tissues were homogenized by sonication, and the homogenates were clarified by centrifugation at 12,000×g for 20 minutes at 4° C. Following centrifugation, the supernatants were removed and protein concentrations were quantified by Bradford assays using a BSA standard.
Immunoblotting: Supernatants from the tissue homogenates were mixed with 1/6 volume of 6×SDS sample buffer (350 mM Tris pH 6.8, 10% SDS, 30% glycerol, 15% 2-mercaptoethanol, 0.012% bromophenol blue). Equal amounts of protein were directly loaded onto 10% acrylamide/0.05% bisacrylamide gels without heat denaturation. […] Protein bands were detected on film by chemiluminescence. […]

R6/2 mice = assay: Bar test to assess motor skill; format: in vivo, mouse; conditions: compared to untreated or saline treated R6/2 mice
Description: Bar test to assess motor skill: Each mouse was held by its tail and allowed to grasp a bar (0.25 cm in diameter, 60 cm long) suspended 30 cm above a padded bench. After the mouse had firmly grasped the bar, the test was begun by releasing its tail. The mouse was allowed two minutes to “escape” by climbing along the bar to one of the bar supports. The mouse was given both performance and time ratings. Performance ratings were based on the following scale: 0, unable to hold bar; 1, holds bar, unable to bring hind limbs to bar; 2, holds bar, draws hind limbs to bar (i.e., 3 paws firmly on bar); 3, holds bar, moves along bar (i.e., moves at least 2 inches in a coordinated manner along bar); 4, escapes (i.e., mouse touches a bar support with one paw). Time ratings were based on the following scale: 0, unable to hold bar (0-3 seconds); 1, holds bar for 4-30 seconds; 2, holds bar for 31-60 seconds; 3, holds bar for 61-90 seconds; 4, holds bar for 91-120 seconds. If the mouse had not reached one of the bar supports by the end of the two minute test period it was removed from the bar. […]
At 9 weeks of age, the mice in each group received saline (group 1) or HDs at 2.0 mg/kg, 5.0 mg/kg, or 20.0 mg/kg (groups 2, 3, and 4, respectively) by i.p. injection every 48 hours. […] Weight stability, clasping behavior, motility, and motor skill were assessed weekly during the treatment period. […]

mice = assay: Toxicity observation (behavior, weight, motor function) during intraventricular PNA treatment; format: in vivo; conditions: 1.0 μL (25 μg/μL) into the ventricle every other day
Protocol: Animal treatment and tissue preparation: Aliquots of 1.0 μL (25 μg/μL) of a PNA oligomer specific for the expanded human HD allele (HDs) or a scrambled control PNA (HDscr) were administered into the ventricle every other day by injection via the cannula.

Substance: HDs: sense PNA oligomer, 14 residues, 5′-GGACTGCCGTGCCG-3′ (SEQ ID NO:3), specific for the expanded human HD allele (all peptide nucleic acid (PNA))
- inhibition of non-targeted genes such as GAPDH (GAPDH): No measurable inhibition
- motor skill (bar test) (R6/2 mice; 5.0 mg/kg i.p. every 48 hours): increased motor skill
- motor skill (bar test) (R6/2 mice; 20.0 mg/kg i.p. every 48 hours): increased motor skill
- toxicity as measured by weight or motor function relative to untreated animals (mice): no effects of toxicity
